EP3333154A1, “CRYSTALLINE FORM OF A SELECTIVE 5-HT6 RECEPTOR ANTAGONIST” (SANDOZ AG, priority 2016, dated 2018)

Key:
[1] = Time-dependent solubility in 0.1 N aqueous HCl solution; conditions: for Concentration: 0.1 N HCl, (25 ± 1) °C, hydrochloride
Experimental: The time dependent solubilities of idalopirdine hydrochloride form III and form V in 0.1 N HCl have been determined. Thereby, saturated solutions of both forms have been stirred at controlled temperature of (25 ± 1) °C and known aliquots have been taken after 5, 30 and 60 minutes. After filtering the solids, the idalopiridine concentrations of the remaining mother liquors were determined by HPLC using the same method as provided in Example 3 herein. The absolute solubility values were calculated from a calibration curve generated with solutions of known idalopirdine concentrations. […] Table 4: Time dependent solubility of idalopirdine hydrochloride form III and form V in 0.1 N HCl at (25 ± 1) °C

[2] = Accelerated stress test at 40 °C/75% RH (HPLC impurities and PXRD); type: physicochemical; conditions: 1 month at 40 °C/ 75% RH, open dish
Experimental: Idalopirdine hydrochloride form V was subjected to accelerated stress conditions of 40 °C and 75% RH in an open dish for one month.

[3] = Differential scanning calorimetry (thermal stability); type: physicochemical; conditions: DSC, heating rate 10 K/min
Experimental: Differential scanning calorimetry (DSC) was performed on a Mettler Polymer DSC R instrument. The sample (4.36 mg) was heated in a 40 microL aluminium pan with pierced aluminium lid from room temperature to 250 °C at a rate of 10 K/min. Nitrogen (purge rate 50 mL/min) was used as purge gas.

[4] = Gravimetric moisture sorption (GMS); type: physicochemical
Experimental: Moisture sorption and desorption curves were recorded with an SPSx-1µ moisture sorption analyzer (ProUmid, Ulm). The measurement cycle was started at ambient RH of 45%. RH was then decreased to 5% in 5% steps, followed by a further decrease to 3% and to 0%. […] Finally, RH was increased to 40% in 5% steps.
The time per step was set to a minimum of 2 hours and a maximum of 6 hours. If an equilibrium condition with a constant mass of ± 0.01 % within 1 hour was reached before the maximum time for all examined samples the sequential humidity step was applied before the maximum time of 6 hours. If no equilibrium was achieved the consecutive humidity step was applied after the maximum time of 6 hours. The temperature was 25 ± 0.1 °C.

[5] = listed as Idalopirdine hydrochloride form V of the present invention

Concentration ([1]; 5 min)	Concentration ([1]; 30 min)	Concentration ([1]; 60 min)	PXRD before and after ([2]; listed as Idalopirdine hydrochloride form V)	Increase of total impurities (HPLC at 225nm) [2, 5]	PXRD before and after [2, 5]	Increase of total impurities (HPLC at 225nm) ([2]; hydrochloride)	higher concentration in 0.1 N HCl [1]	Concentration, difference to Form III ([1]; 5 min)	Concentration, difference to Form III ([1]; 30 min)	Concentration, difference to Form III ([1]; 60 min)	thermally stable up to a temperature [3]	PXRDs before and after the GMS experiment ([4]; 0 to 95% RH, 25 ± 0.1 °C)	mass increase in the sorption cycle ([4]; sorption cycle from 0 to 95% RH, 25 °C)	Compound
500 µg/mL	600 µg/mL	800 µg/mL												Cl.Fc1ccc2c(CCNCc3cccc(OCC(F)(F)C(F)F)c3)c[nH]c2c1 [Form III, N-[2-(6-fluoro-1H-indol-3-yl)ethyl]-3-(2,2,3,3-tetrafluoropropoxy)benzylamine hydrochloride, reference compound]
700 µg/mL	900 µg/mL	900 µg/mL	No change	+0.7 area%	unchanged	about 0.7 area%	up to 50%	+40%	+50%	+12.5%	at least 120 °C	identical	0.5 w-%	Cl.Fc1ccc2c(CCNCc3cccc(OCC(F)(F)C(F)F)c3)c[nH]c2c1 [Form V, N-[2-(6-fluoro-1H-indol-3-yl)ethyl]-3-(2,2,3,3-tetrafluoropropoxy)benzylamine hydrochloride]
